Format in all cases: cell-based
The subject of test [1] is MCT1 expressing WiDr cell line. Kind of test: Mitochondrial stress test (Seahorse XFe96). The following applies: vs DMSO control. As for the experimental part:
(§1) The metabolic profile of compound 1 was evaluated via mitochondrial stress test (MST) and glycolytic stress test (GST) on MCT4 expressing MDA-MB-231 and MCT1 expressing WiDr cell lines using Seahorse XFe96® analyzer (FIGS. 1A and 1B). 20,000 cells/well were seeded in 96-well microplates. MST was performed according to the manufacturer's protocol. The mitochondrial parameters: maximal respiration, ATP production, proton leak and spare respiratory capacity were calculated using wave software. DMSO was used as the negative control. A concentration study was performed in MDA-MB-231 cell line using compound 1 at 100, 50 and 30 μM concentrations. […] GST was also performed according to the manufacturer's protocol. The glycolytic parameters: glycolysis, glycolytic capacity, and glycolytic reserve were calculated using wave software, with DMSO as a negative control. In this case also, a concentration study was carried out at 100, 50 and 30 μM in MDA-MB-231 cell line.

Test [2] concerns MCT4 expressing MDA-MB-231 cell line. Kind of test: Mitochondrial stress test (Seahorse XFe96). The following applies: 100, 50 and 30 μM, vs DMSO control. On the procedure: as §1
For test [3] the test system is unchanged. Kind of test: Glycolysis stress test (Seahorse XFe96). The following applies: 100, 50 and 30 μM, vs DMSO control. On the procedure: as §1
Test [4] relates to 4T1 breast cancer cell line. Kind of test: Inhibition of pyruvate-driven respiration in permeabilized cells (Seahorse XFe96). The following applies: varying concentrations.

The structures appear in SMILES notation.

`N#C/C(=C\c1ccc(N(c2ccc(F)cc2)c2ccc(F)cc2)cc1)C(=O)O` [Compound 1, (E)-3-(4-(bis(4-fluorophenyl)amino)phenyl)-2-cyanoacrylic Acid]: in test [1], the ATP production entry is “significantly decreased”, the maximal respiration result was “significantly decreased” and the spare respiratory capacity entry is “significantly decreased”. In addition, in test [2], the ATP production result is “significantly decreased”, the maximal respiration entry is “significantly decreased” and the spare respiratory capacity result is given as “significantly decreased”. Also, in test [3], the glycolytic capacity entry is on record as “significantly decreased” and the glycolytic reserve entry is on record as “significantly decreased”.

Consider `COc1cc(N(c2ccc(F)cc2)c2ccc(F)cc2)ccc1/C=C(\C#N)C(=O)O` [Compound 2, (E)-3-(4-(bis(4-fluorophenyl)amino)-2-methoxyphenyl)-2-cyanoacrylic Acid], for which the “oxygen consumption rate (OCR) after compound injection” value in test [4] (intact 4T1 cells, before rPFO) is “Acute decreases in OCR were observed”. Besides, the “inhibition of pyruvate-driven respiration” value in test [4] (rPFO-permeabilized 4T1 cells, FCCP-stimulated pyruvate/malate/DCA) is on record as “inhibited pyruvate-driven respiration in permeabilized cells in a dose dependent fashion”.

The values are drawn from patent publication US20210114975A1, “THERAPEUTIC COMPOUND AND METHODS” (Regents of the University of Minnesota, priority 2019, published 2021).
